Paper PMC12373846, “Hemoglobin as a pseudoperoxidase and drug target for oxidative stress-related diseases” (Signal Transduction and Targeted Therapy, 2025)
Read-outs that look alike come from different tables or passages of the source.

How the values were obtained:
[1] = tested on: primary cultured hippocampal astrocytes; assay: DCFDA intracellular ROS assay; assay type: cell-based, mouse; settings: for Aβ-induced ROS level (DCFDA), normalized to control: Aβ 5μM + compound 10μM, Fig. 3e; for relative ROS level (DCFDA): Aβ42+KDS12025 10 μM, Fig. 6c
Description: Primary hippocampal astrocytes were obtained from postnatal day 0‒2 (P0‒2) C57BL/6 mice as previously described.[73] The hippocampal tissue was dissected free of meninges, minced, and dissociated into a single-cell suspension by trituration. The cells were grown in Dulbecco’s modified Eagle’s medium supplemented with D-glucose (4500 mg/L), L-glutamine, sodium pyruvate (110 mg/L), 10% heat-inactivated horse serum, 10% heat-inactivated fetal bovine serum, and 1000 U/ml penicillin‒streptomycin. The cells were maintained at 37 °C in a humidified atmosphere containing 5% CO2.
The intracellular ROS levels of astrocytes were determined via 2′,7′- dichlorodihydrofluorescein diacetate (DCFDA; Thermo Fisher). Primary cultured hippocampal astrocytes were seeded into black 96-well plates (Ibidi) at a density of 5 × 10⁴ cells per well. The plates were incubated with oligomerized Aβ42 in the presence of KDS12008, KDS12017, KDS12025, HTPEB (10 µM each), and sodium pyruvate (1 mM). These cells were subsequently washed with Ca^2+ and Mg^2+-containing PBS, followed by the application of 30 µM DCFDA and incubation at 37 °C for 30 min in a dark incubator. The mean fluorescence intensity of each well was measured via iD5 microplate readers at 485 nm and 530 nm. The fluorescence values were calculated by subtracting the blank readings and normalizing them to those of the control group.

[2] = target: T1, HRP (Armoracia rusticana, UniProt P00433); assay: H2O2 assay with HRP (HRP-EC50); assay type: biochemical, horseradish; settings: Tables S2, S3; read-out: HRP-EC50
T1 sequence (P00433 31-353): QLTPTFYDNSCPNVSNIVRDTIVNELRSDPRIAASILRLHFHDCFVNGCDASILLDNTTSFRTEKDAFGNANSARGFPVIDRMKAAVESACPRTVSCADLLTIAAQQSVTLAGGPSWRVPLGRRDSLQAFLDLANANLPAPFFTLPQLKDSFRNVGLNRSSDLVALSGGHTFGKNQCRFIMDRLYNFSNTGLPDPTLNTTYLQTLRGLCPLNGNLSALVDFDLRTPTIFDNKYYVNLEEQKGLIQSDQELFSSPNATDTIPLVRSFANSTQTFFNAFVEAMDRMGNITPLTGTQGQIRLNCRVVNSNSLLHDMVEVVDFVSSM
Description: (§1) Hb (Sigma‒Aldrich, H7379), H2O2 (Sigma‒Aldrich, H1009), and Amplex Red reagents (Invitrogen, A12222) were obtained for the study. A 4 μM H2O2 solution was prepared in 50 mM sodium phosphate buffer (pH 7.2). Then, 49 μl of this mixture was mixed with 1 μl of the test compound in DMSO or distilled water. The mixture was combined with an assay mixture of Amplex Red reagent (20 mM stock to 0.1 mM) and HRP (200 U/ml stock to 0.2 U/ml) and added to the wells at 50 μl/well. After a 60-min incubation at 37 °C, resorufin production was quantified via a microplate fluorescence reader (SpectraMax iD5, Molecular Devices) at ex/em = 535/580 nm. The H2O2-decomposing activity was estimated via the following equation: (sample fluorescence-blank fluorescence)/(control absorbance-blank fluorescence) × 100. For the ROS-Glo assay, the H2O2 substrate solution and ROS-Glo detection solution were prepared according to the manufacturer’s instructions. 10 μM H2O2 and drugs were prepared as in the Amplex Red assay, with HRP, Hb, CAT, or GPx added as needed. The mixture was added to the wells at 100 μl/well and incubated for 60 min at 37 °C. H2O2 substrate solution was added, and the mixture was incubated at room temperature for 30 min. After the H2O2 substrate solution was added and incubated at room temperature for 30 min, the ROS-Glo detection solution was added, and the mixture was incubated for 15 min. Luminescence was measured via iD5 microplate readers. The H2O2-decomposing activity was estimated via the following equation: (sample luminescence-blank luminescence)/(control luminescence-blank luminescence) × 100. The U/ml was calculated on the basis of the amount of H2O2 reduced by Hb during the reaction, using μg/ml and U/mg.

[3] = target: T2, Hb (Homo sapiens, UniProt P68871); assay: ROS-Glo H2O2 assay with Hb; assay type: biochemical; settings: for remaining H2O2 normalized to no Hb: Fig. 2d; for fold change in H2O2 decomposition (Hb pseudoperoxidase activity per 0.5 h): 30-min window, Fig. 2b
T2 construct: purchased Sigma-Aldrich H7379
Description: as §1, with “The H2O2-decomposing activity was estimated via the following equation: (sample fluorescence-blank fluorescence)/(control absorbance-blank fluorescence) × 100.” left out, “The H2O2-decomposing activity was estimated via the following equation: (sample luminescence-blank luminescence)/(control luminescence-blank luminescence) × 100.” left out
To evaluate the extent of peroxidase function facilitation by HTPEB (1 μM) and KDS12025 (1 μM) in HRP (0.2 U/ml) and Hb (10 μg/ml), we used the ROS-Glo assay over 30 and 60 min. The fold change was calculated by dividing the delta values during the 30-min reaction for the vehicle over drug conditions.
To assess enzyme activity, the amount of H2O2 consumed over a specific time was quantified alongside a standard curve. For the peroxidase function of Hb, Hb was administered at doses ranging from 0.01 to 112 U/ml and preincubated with H2O2 and either DMSO, HTPEB (1 μM), or KDS12025 (1 μM) at 37 °C for 30 min. The remaining H2O2 was measured via the ROS-Glo assay and normalized against conditions without Hb. The dose‒response curve, EC50, and EC20 for H2O2 decomposition were calculated and determined by fitting the data with GraphPad Prism software. The fitting method had no special handling of outliers, and least squares regression with confidence intervals of the parameters was 95%.

[4] = ROS-Glo H2O2 assay without HRP or Hb; assay type: biochemical; settings: ROS-Glo assay lacking HRP/Hb
Description: as §1

[5] = Tables S2, S3, read-out: HB-EC50
[6] = in the presence of Hb, Fig. 1h, read-out: EC50 with Hb (H2O2 decomposition)

T2 sequence (P68871 2-147 limits assumed): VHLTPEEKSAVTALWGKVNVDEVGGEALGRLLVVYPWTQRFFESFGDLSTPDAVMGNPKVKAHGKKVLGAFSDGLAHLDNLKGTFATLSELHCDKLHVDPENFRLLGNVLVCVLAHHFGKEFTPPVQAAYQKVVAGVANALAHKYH
T2 sequence (P69905 2-142 partner limits assumed): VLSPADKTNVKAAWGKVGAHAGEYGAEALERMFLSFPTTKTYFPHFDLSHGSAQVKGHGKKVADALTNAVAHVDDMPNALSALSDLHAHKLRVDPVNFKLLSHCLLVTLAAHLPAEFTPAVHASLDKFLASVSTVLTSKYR

Compound	Aβ-induced ROS level (DCFDA), normalized to control [1]	EC50 [2] [nM]	remaining H2O2 normalized to no Hb ([3]; Hb 0.01 U/ml)	remaining H2O2 normalized to no Hb ([3]; Hb 0.1 U/ml)	remaining H2O2 normalized to no Hb ([3]; Hb 1 U/ml)	fold change in H2O2 decomposition (Hb pseudoperoxidase activity per 0.5 h) [3] [fold]	EC50 [3, 5] [nM]	EC50 [3, 6] [nM]	facilitation of H2O2 decomposition by Hb ([3]; with HTPEB, Fig. 1f) [fold]	H2O2-decomposing activity without HRP or Hb [4]	relative ROS level (DCFDA) ([1]; Hbβ-shRNA astrocytes)	relative ROS level (DCFDA) ([1]; Sc-shRNA astrocytes)	enhancement of Hb pseudoperoxidase activity [3] [fold]	EC50 ([3]; Fig. S1f, read-out: EC50, H2O2 decomposition with human hemoglobin (hHb)) [nM]	H2O2 decomposition at extremely low Hb ([3]; Hb 0.04 U/ml, 0.03 μg/ml)	potency relative to HTPEB ([3]; ratio of EC50 with Hb)	fold decrease of Hb EC20 for H2O2 decomposition ([3]; vs Hb alone, Fig. 2e) [fold]	fold decrease of Hb EC50 for H2O2 decomposition ([3]; vs Hb alone, Fig. 2e) [fold]
O=C(O)c1cc(NCCc2ccc(C(F)(F)F)cc2)ccc1O [HTPEB, 2-hydroxy-5-[2-(4-trifluoromethyl-phenyl)-ethylamino]-benzoic acid, reference compound]	112.0±8.321	1520	84.92±3.034	81.24±5.607	70.82±3.83	2.529±0.6645	155	150	2	no activity								
CN(C)c1ccc(NCCc2ccc(C(F)(F)F)cc2)cc1.Cl [KDS12008, N^1,N^1-dimethyl-N^4-(4-(trifluoromethyl)phenethyl)benzene-1,4-diamine hydrochloride salt]	96.78±7.989	795					67											
CNc1ccc(NCCc2ccc(C(F)(F)F)cc2)cc1.Cl [KDS12017, N^1-methyl-N^4-(4-(trifluoromethyl)phenethyl)benzene-1,4-diamine hydrochloride salt]	109.6±6.466	828					86.2	90		neither KDS12017 nor KDS12025 degrades H2O2 without Hb								
CNc1ccc(NCCc2ccccc2OC)cc1.Cl [KDS12025, N^1-(2-methoxyphenethyl)-N^4-methylbenzene-1,4-diamine hydrochloride salt]	110.3±5.804	529	82.57±2.025	75.36±1.113	62.38±2.923	5.676±0.6374	44.9	40		neither KDS12017 nor KDS12025 degrades H2O2 without Hb	134.1±5.185	105.8±2.173	100	33	up to 20%	~ 4 fold	98	4.7
